From patent publication US20110281285A1, “Assay for Detecting Cathepsin K Activty in Bone, Cartilage and/or Soft Tissue” (priority 2009, published 2011)
Non-standard residues stand in square brackets, D forms with d. No end group written: not given here. Hyp = O=C(O)[C@@H]1C[C@@H](O)CN1

T1: Recombinant human cathepsin K (Homo sapiens, UniProt P43235)
T1 construct: processed to the mature form and purified as described previously; made in house; host or cells: Pichia pastoris
T1 sequence (P43235 115-329): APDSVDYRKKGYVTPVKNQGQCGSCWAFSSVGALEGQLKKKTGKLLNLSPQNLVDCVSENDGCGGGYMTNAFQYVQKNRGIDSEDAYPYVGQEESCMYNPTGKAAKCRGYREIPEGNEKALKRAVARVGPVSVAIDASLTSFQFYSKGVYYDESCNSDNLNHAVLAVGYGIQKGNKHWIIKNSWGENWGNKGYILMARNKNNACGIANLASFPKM


Assays:
antiserum R771 = test: Competitive inhibition ELISA for neoepitope specificity of the antiserum; type: binding, rabbit; conditions: for competition by / binding of the antibody to competing synthetic peptide: competitive inhibition ELISA, FIG. 1A and B
Protocol: A direct enzyme-linked immunosorbent assay (ELISA) assay was used to determine the antibody titer. The antiserum with the highest titer was selected for use. Investigation of the neoepitope specificity of the antiserum was performed by competitive inhibition ELISA as described.^17 The percentage binding and percentage inhibition were calculated for each of the standard peptides and results were expressed on a molar basis.
(§1) Immulon™ 2 plates (VWR International, Montreal, Canada) were coated with the peptide-ovalbumin conjugate (prepared as described above for the hemocyanin conjugate) diluted in phosphate-buffered saline (PBS), pH 7.2, at 3 ng/well (50 μl/well), the optimum concentration as determined by checkerboard analyses. After overnight incubation at 4° C., the plate was washed three times with PBS-0.1% Tween™ 20 and blocked with 100 μl of PBS-1% bovine serum albumin (BSA), at room temperature for 30 minutes. Serial dilutions of the standard peptide containing the epitope that had been used for immunization were prepared and added at 50 μl/well in triplicate to round bottom polypropylene plates used as preincubation plates; the antiserum was diluted 1:12,000 (optimum dilution as determined by checkerboard analyses) in PBS-1% BSA, 0.1% Tween 20, pH 7.2, and added to the plates (50 μl/well). In the nonspecific binding wells 50 μl of PBS-1% BSA and 50 μl of PBS-1% BSA, 0.1% Tween 20 were added; the maximum binding wells contained 50 μl of the diluted antiserum and 50 μl of PBS-1% BSA. After 1 hour incubation at 37° C., 50 μl of each preincubated well was transferred to the Immulon 2 flat-bottom, 96-well microtiter plates. The plates were incubated at 4° C. for 30 minutes and then washed three times with PBS-0.1% Tween 20. Alkaline phosphatase-conjugated goat antirabbit IgG (Sigma, St. Louis, Mo.), diluted 1:1000 in PBS-1% BSA, 0.1% Tween 20 was then added to each well (50 μl/well). The plate was incubated for 1 hour at 37° C., washed three times with PBS-0.1% Tween 20, and once with distilled water. One 5 mg tablet of alkaline phosphatase substrate (Sigma) was dissolved in 10 ml of 8.9 mmol/L diethanolamine buffer, pH 9.8, and added to the plate (50 μl/well). The optical density (405 nm) was read after 1 hour incubation. The detection limit of the newly developed assay was 2.8 ng/ml and the coefficients of variation (% CV) of the intra-assays and inter-assays were <10%. The analytic recovery was 87.2 to 97.3% and the recovery rates for the serial dilution were 92 to 108%.

[1] = target: T1, Recombinant human cathepsin K; test: Digestion of human Col II with cathepsin K, C2K neoepitope by inhibition ELISA; type: biochemical; conditions: pH 7.0, 2 μmol/L cathepsin K, peak at 48 hours, versus absence of chondroitin sulfate (FIG. 4)
Protocol: as §1, with “Alkaline phosphatase-conjugated goat antirabbit IgG (Sigma, St. Louis, Mo.), diluted 1:1000 in PBS-1% BSA, 0.1% Tween 20 was then added to each well (50 μl/well). The plate was incubated for 1 hour at 37° C., washed three times with PBS-0.1% Tween 20, and once with distilled water. One 5 mg tablet of alkaline phosphatase substrate (Sigma) was dissolved in 10 ml of 8.9 mmol/L diethanolamine buffer, pH 9.8, and added to the plate (50 μl/well).” left out, “The detection limit of the newly developed assay was 2.8 ng/ml and the coefficients of variation (% CV) of the intra-assays and inter-assays were <10%. The analytic recovery was 87.2 to 97.3% and the recovery rates for the serial dilution were 92 to 108%.” left out

α-chymotrypsin = target: T2, α-chymotrypsin (Bos taurus, UniProt P00766); test: Treatment of immunizing peptide with α-chymotrypsin; conditions: 50 ng/ml immunizing peptide solution
T2 construct: purchased Sigma
Protocol: The content of C2K and C2C neoepitopes in cartilage were determined by extraction with α-chymotrypsin (Sigma). This degrades denatured but not intact triple helical collagen, to solubilize the collagen neoepitopes that can then be assayed. Femoral condylar cartilages from 17 normal and 19 OA individuals were washed and digested with α-chymotrypsin, as previously described.^23 The digest was removed and stored at −20° C. until analyzed. To ensure that the cathepsin K-generated neoepitope is not cleaved by α-chymotrypsin, a separate digestion was first performed by treating a 50 ng/ml immunizing peptide solution with α-chymotrypsin as described above. […] The concentration of the neoepitope released from the cartilage in the α-chymotrypsin digests was expressed as pmol of neoepitope/mg wet wt of cartilage (based on the molecular weights of the two neoepitope sequences used as standards in the ELISA assays: 717.8 Da for the C2K neoepitope and 972 Da for C2C).

[2] = target: antiserum R771 (rabbit polyclonal anti-C2K neoepitope antiserum); test: competitive inhibition ELISA: free peptide against plate-bound peptide-ovalbumin conjugate, antiserum R771 at 1:12,000

Molecule	competition by / binding of the antibody to competing synthetic peptide (antiserum R771)	other results
chondroitin 6-sulfate [C6S]	–	amount of C2K neoepitope on addition to the digestion buffer [1]: significantly increased
chondroitin 4-sulfate [C4S]	–	amount of C2K neoepitope on addition to the digestion buffer [1]: significantly increased
CGEAGKPG [immunizing peptide, N-terminal cysteine added]	–	loss of epitope after α-chymotrypsin treatment (α-chymotrypsin): No loss of epitope; IC50 (antiserum R771; peptide alone as competitive antigen, antiserum R771 diluted 1:12,000, read-out: median inhibitory concentration (IC50) in ELISA inhibition assay): 45 nM
(v): immunizing peptide with deletion of the alanine residue (CGEGKPG; listed as Homo sapiens)	negligible binding	–
(i): one-residue truncation of the immunizing peptide at the C terminus (CGEAGKP; listed as Homo sapiens)	negligible	–
(ii): one-residue extension of the immunizing peptide at the C terminus (CGEAGKPGK; listed as Homo sapiens)	negligible	–
CGEAGKPG	–	IC50 [2]: 45 nM

The next lines start with results.

competition by / binding of the antibody to competing synthetic peptide (antiserum R771)	Molecule	other results
reduced affinity	peptide iii: sequence similar to the immunizing peptide, except for the proline residue that was 4-hydroxylated (CGEAGK[Hyp]G)	–
negligible binding	(vi): immunizing peptide with glutamic acid and alanine residues inverted (CGAEGKPG; listed as Homo sapiens)	–
some affinity	peptide (iv): N-terminally truncated peptide, deletion of the G (CEAGKPG; listed as Homo sapiens)	–
